Test results published in paper PMC4520450, “Procyanidins Negatively Affect the Activity of the Phosphatases of Regenerating Liver” (PLoS ONE, 2015).
One block for each molecule: values may come before it.

Columns and labels:
[1] = system: Caco-2 cell model; parameters: method as in PMID 23885956; details: cited from earlier work
[2] = target: T1, PRL-3 (Homo sapiens, UniProt O75365); assay: DiFMUP phosphatase activity assay for PRLs; type: biochemical; details: for IC50: 50 nM PRL-3, 30 min preincubation, 25°C, 21 μM DiFMUP, mean ± SEM (n = 3–5), read-out: IC50 (Ki) PRL-3
T1 construct: His-TEV (cleaved yes); made in house
Description: Biochemical phosphatase activity measurements were carried out in the presence of different concentrations of various polyphenols, compounds 1–11 (Fig 1), using recombinant PRL-3 and 6,8-difluoro-4-methylumbelliferyl phosphate (DiFMUP) as a fluorogenic substrate (see the experimental procedures). We observed that the monomeric epicatechins EGC and EC inhibit PRL-3 only weakly, with a slightly better activity of EGC, which bears three hydroxyl groups at the B-ring. […] In general, as a basic structure activity-relationship the following trend was observed: a higher number of hydroxyl groups at the B-ring increased the activity slightly. […] The influence of the stereochemistry at C(2)–C(3) was studied by using GCG (the trans-epimer of EGCG).
(§1) Fig 2 Effect of polyphenolic compounds 8 (A), 9 (B), 10 (C) and 11 (D) on the phosphatase activity of PRL-1, PRL-2, PRL-3, PP1, and PP2A. Proteins were incubated for 30 min with 0–1000 μM of the corresponding procyandin 8–11. Phosphatase activity was measured in the presence of DiFMUP at 25°C using the concentration corresponding to the KM of each protein. The KM for PRLs was determined separately (PRL-3 = 21 μM, PRL-2 and PRL-1 = 24 μM). The KM for PP1 (91 μM) and for PP2A (100 μM) was taken from the literature. Protein concentrations are 50 nM for all PRLs and 2 mU for PP1 and 0.05 U for PP2A (see the Experimental Procedures). Phosphatase activity in the absence of inhibitors was set as 100%. Data represent means ± standard errors of the mean (n = 3–5).
(§2) DiFMUP assay for PRLs: In a final reaction volume of 100 μL the PRLs (50 nM final concentration) were incubated with decreasing concentrations of the inhibitory polyphenols for 30 minutes at 25°C. The buffer conditions were 108 mM TrisCl (pH 7.5), Triton 0.05% (v/v), DTT 27.0 mM, NaCl 811 mM. After the incubation time 20 μL DiFMUP (6,8-Difluoro-4-methylumbelliferyl phosphate) was added to reach a final concentration of 21 μM for PRL-3 and 24 μM for PRL-1 and PRL-2. On a Tecan safire2 (Tecan, Salzburg, Austria) plate reader dephosphorylation of the substrate to its fluorescent product was monitored by following the emission at 358 nm with excitation at 452 nm for 20 minutes. All measurements were done in triplicates, and the experiments were repeated at least three times. The slopes of the initial phases were obtained by linear regression of the data points. The normalized reaction rates were plotted versus the log of the inhibitor concentrations and the IC50 values were obtained by fitting the curves using the one site competition model of GraphPad Prism (GraphPad Software, Version 5). KM values were determined by measuring reaction kinetics of substrate dilution series. Initial velocities were plotted against DiFMUP concentration and the data was analyzed by Michaelis-Menten kinetics curve fitting of GraphPad Prism. A final DMSO content of 0.4% was maintained for the monomeric catechins. Due to the high water solubility of the procyanidins DMSO was not required and measurements were done in assay buffer only.

[3] = target: T2, PRL-2 (Homo sapiens, UniProt Q12974); assay: DiFMUP phosphatase activity assay for PRLs; type: biochemical; details: 50 nM PRL-2, 30 min preincubation, 25°C, 24 μM DiFMUP; mean ± SEM (n = 3–5); read-out: IC50 (Ki) PRL-2
T2 construct: His-TEV (cleaved yes); made in house
T2 sequence (Q12974 1-167): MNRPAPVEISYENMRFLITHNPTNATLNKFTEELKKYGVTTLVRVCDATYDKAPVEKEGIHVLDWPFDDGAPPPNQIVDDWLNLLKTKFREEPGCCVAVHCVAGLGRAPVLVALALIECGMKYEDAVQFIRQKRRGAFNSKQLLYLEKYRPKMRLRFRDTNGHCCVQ
Description: as §1, §2

[4] = target: T3, PRL-1 (Homo sapiens, UniProt Q93096); assay: DiFMUP phosphatase activity assay for PRLs; type: biochemical; details: 50 nM PRL-1, 30 min preincubation, 25°C, 24 μM DiFMUP; mean ± SEM (n = 3–5); read-out: IC50 (Ki) PRL-1
T3 construct: His-TEV (cleaved yes); made in house
T3 sequence (Q93096 1-173): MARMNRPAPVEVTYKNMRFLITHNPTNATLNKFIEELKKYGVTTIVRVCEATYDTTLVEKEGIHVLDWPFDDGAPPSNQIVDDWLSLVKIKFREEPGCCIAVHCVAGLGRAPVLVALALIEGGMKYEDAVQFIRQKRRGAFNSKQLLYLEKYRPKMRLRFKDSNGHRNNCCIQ
Description: as §1, §2

[5] = target: T4, PP1 (Oryctolagus cuniculus, UniProt P62139); assay: DiFMUP assay for PP1; type: biochemical
T4 construct: purchased NewEngland Biolabs; host or cells: E. coli
Description: as §1
(§3) BSA, which is usually supplemented to the assay buffer for stabilizing the PPs was however excluded, as BSA is known to form complexes with polyphenolic compounds [40–42] and thus would decrease the concentrations of the inhibitor in the assay. […] In contrast, the phosphatase activity of PP2A was suppressed to a much lesser extent with weak (for trimer 9 and hexamer 11) and strong statistical significance (dimer 8 and tetramer 10). Thus our results corroborate the data reported previously.
DiFMUP assay for PP1: In a final reaction volume of 100 μL PP1c (2 mU final concentration, according to manufacturer’s instructions) were incubated with decreasing concentrations of the inhibitory polyphenols for 30 minutes at 25°C. The assay buffer contained 25 mM imidazole (pH 7.4), 1 mM dithiothreitol (DTT), and 50 mM NaCl. Bovine serum albumin (BSA) was excluded due to possible binding of the polyphenolic compounds. After the incubation time 20 μL DiFMUP (6,8-Difluoro-4-methylumbelliferyl phosphate) was added to reach a final concentration of 100 μM. Monitoring of the fluorescent dephosphorylation product was monitored and data analyzed as described above.

[6] = target: T5, PP2A (Homo sapiens, UniProt P67775); assay: DiFMUP assay for PP2A; type: biochemical; details: 0.05 U PP2A, 30 min preincubation, 25°C, no BSA, mean ± SEM (n = 3–5), read-out: IC50 (Ki) PP2A
T5 construct: purified from human red blood cells; purchased Merck Millipore; host or cells: human red blood cells
Description: as §1, §3
Chemicals and vendors were as follows: Synthesis of Procyanidins (dimer to dodecamer) was done as previously reported. EGCG, EGC, ECG and EC were synthesized as previously reported or purchased from Sigma. (+)-Catechin and 3-(4,5-dimethylthiazol-2-yl)-2,5-diphenyltetrazolium bromide (MTT) were obtained from Sigma. 6,8-Difluoro-4-Methylumbelliferyl Phosphate (DiFMUP), propidium iodide and calcein AM were from lifescience technologies. Cell dissociation solution (10X) was purchased from amsbio. PP1c (recombinant from E. coli) was purchased from NewEngland Biolabs and PP2A (purified from human red blood cells, contains different subunits according to manufacturer) from Merck Millipore. Transwell plates (BRANDplates) and insert stripes for the migration assay were purchased from Brand GmbH. Black 96 well plates (96F Nunclon Delta) were purchased from Thermo Scientific. Transparent 96 well assay plates with UV transparent bottom were purchased from Corning Inc. Wound healing experiments were carried out with μ-dish 35 mm culture inserts, which were purchased from Ibidi.
DiFMUP assay for PP2A: In a final reaction volume of 100 μL PP2A (0.05 U final concentration, according to manufacturer’s instructions) were incubated with decreasing concentrations of the inhibitory polyphenols for 30 minutes at 25°C. The assay buffer contained 50 mM TrisCl (pH 7.5), 250 mM NaCl, 0.1 mM EDTA, 1 mM MnCl2, and 2 mM dithiothreitol (DTT). […] Monitoring of the fluorescent dephosphorylation product was monitored and data analyzed as described above.

[7] = target: T3, PRL-1; assay: DiFMUP phosphatase activity assay for PRLs; type: biochemical; details: Michaelis-Menten and Lineweaver-Burk analysis, DiFMUP hydrolysis
[8] = target: T1, PRL-3; parameters: method as in PMID 20873564; details: cited from earlier work
[9] = system: PP2A; parameters: method as in PMID 22260360; details: cited from earlier work
[10] = target: protein phosphatase-1; parameters: method as in PMID 22260360; details: cited from earlier work
[11] = Michaelis-Menten and Lineweaver-Burk analysis, DiFMUP hydrolysis

T1 sequence (O75365 whole entry): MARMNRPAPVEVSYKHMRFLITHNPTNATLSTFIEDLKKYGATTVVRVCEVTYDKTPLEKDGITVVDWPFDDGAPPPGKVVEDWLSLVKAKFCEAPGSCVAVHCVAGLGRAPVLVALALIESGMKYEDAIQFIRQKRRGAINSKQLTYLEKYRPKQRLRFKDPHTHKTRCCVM
T4 sequence (P62139 whole entry): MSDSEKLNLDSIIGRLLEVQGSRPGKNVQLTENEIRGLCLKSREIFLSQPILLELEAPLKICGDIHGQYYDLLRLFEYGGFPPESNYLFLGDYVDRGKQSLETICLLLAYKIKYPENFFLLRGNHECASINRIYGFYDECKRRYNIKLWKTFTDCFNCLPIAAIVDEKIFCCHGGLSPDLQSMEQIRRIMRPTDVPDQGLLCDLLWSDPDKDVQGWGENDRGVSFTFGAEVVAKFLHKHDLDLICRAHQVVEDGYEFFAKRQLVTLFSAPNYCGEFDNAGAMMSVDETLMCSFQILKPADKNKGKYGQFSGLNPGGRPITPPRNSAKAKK
T5 sequence (P67775 whole entry): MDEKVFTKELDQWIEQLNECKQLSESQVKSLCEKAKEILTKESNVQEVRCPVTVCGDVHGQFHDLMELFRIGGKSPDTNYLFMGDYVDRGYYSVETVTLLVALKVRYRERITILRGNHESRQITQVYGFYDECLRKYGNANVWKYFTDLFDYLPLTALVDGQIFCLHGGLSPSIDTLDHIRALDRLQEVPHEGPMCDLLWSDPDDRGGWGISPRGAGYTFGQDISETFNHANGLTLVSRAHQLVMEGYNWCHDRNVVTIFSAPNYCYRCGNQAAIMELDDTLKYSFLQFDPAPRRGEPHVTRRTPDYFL
T5 sequence (P30153 2-589 partner limits assumed): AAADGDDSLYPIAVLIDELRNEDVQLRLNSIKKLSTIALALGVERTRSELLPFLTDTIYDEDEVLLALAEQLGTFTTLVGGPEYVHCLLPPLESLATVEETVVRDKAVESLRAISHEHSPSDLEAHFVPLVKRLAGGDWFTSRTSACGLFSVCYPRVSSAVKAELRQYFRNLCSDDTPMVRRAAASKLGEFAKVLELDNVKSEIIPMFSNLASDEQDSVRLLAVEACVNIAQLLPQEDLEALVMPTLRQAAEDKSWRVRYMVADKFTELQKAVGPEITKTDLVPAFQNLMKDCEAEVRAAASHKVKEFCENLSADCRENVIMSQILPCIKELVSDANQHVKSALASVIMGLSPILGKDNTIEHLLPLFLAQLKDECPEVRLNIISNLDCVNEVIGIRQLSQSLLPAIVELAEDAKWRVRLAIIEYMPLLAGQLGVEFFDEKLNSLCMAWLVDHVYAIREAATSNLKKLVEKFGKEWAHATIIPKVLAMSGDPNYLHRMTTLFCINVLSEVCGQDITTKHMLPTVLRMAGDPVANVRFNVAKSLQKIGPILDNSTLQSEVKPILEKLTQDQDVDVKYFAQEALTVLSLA

Structure (SMILES): Oc1cc(O)c2c(c1)O[C@H](c1ccc(O)c(O)c1)[C@H](O)[C@H]2c1c(O)cc(O)c2c1O[C@H](c1ccc(O)c(O)c1)[C@H](O)[C@H]2c1c(O)cc(O)c2c1O[C@H](c1ccc(O)c(O)c1)[C@H](O)C2 [procyanidin C1, reference compound]
- permeation [1]: no permeation was detected

- IC50 [2]: 16.3 ± 2.3 µM
- type of inhibition, PRL-3 [2, 11]: noncompetitive
- IC50 [3]: 13.4 ± 2.5 µM
- IC50 [4]: 2200 ± 1100 nM
- IC50 ([5]; 2 mU PP1c, 30 min preincubation, 25°C, DiFMUP, no BSA, mean ± SEM (n = 3–5), read-out: IC50 (Ki) PP1): 13.8 ± 2.9 µM
- type of inhibition, PP1 [5, 11]: noncompetitive
- IC50 [6]: 77.9 ± 10.7 µM
- type of inhibition, PRL-1 [7]: noncompetitive
Structure (SMILES): Oc1cc(O)c2c(c1)O[C@H](c1ccc(O)c(O)c1)[C@@H](O)[C@@H]2c1c(O)cc(O)c2c1O[C@H](c1ccc(O)c(O)c1)[C@@H](O)[C@@H]2c1c(O)cc(O)c2c1O[C@H](c1ccc(O)c(O)c1)[C@@H](O)[C@@H]2c1c(O)cc(O)c2c1O[C@H](c1ccc(O)c(O)c1)[C@@H](O)C2 [Tetramer (10)]

Structure (SMILES): O=c1c(O)c(-c2cc(O)c(O)c(O)c2)oc2cc(O)cc(O)c12 [myricetin]
- PRL-3 phosphatase inhibition in vitro [8]: moderate phosphatase inhibition

Structure (SMILES): O=c1c(O)c(-c2ccc(O)c(O)c2)oc2c(O[C@@H]3O[C@H](CO)[C@@H](O)[C@H](O)[C@H]3O)c(O)cc(O)c12 [gossypin]
- PRL-3 phosphatase inhibition in vitro [8]: moderate phosphatase inhibition

- increase in PRL-3 inhibition of 3-gallate ester compared to non-gallate (2 vs 1, 4 vs 3) [2]: about two-fold increase
- IC50 [2]: 121 ± 5.7 µM
Structure (SMILES): O=C(O[C@@H]1Cc2c(O)cc(O)cc2O[C@@H]1c1cc(O)c(O)c(O)c1)c1cc(O)c(O)c(O)c1 [EGCG (4)]
- activity toward PP2A relative to PP1 [9]: ten-fold lower activity
- IC50 [10]: 1350 nM
